Results from ChEMBL document CHEMBL5724796, “Tm Shift (DSF) assay results for EUbOPEN Chemogenomics Library” (2024).

What was measured:
Peregrin (Homo sapiens) = molecular target: T1, Peregrin (Homo sapiens) (UniProt P55201); conditions: Compound concentration 20.0 uM
T1 sequence (whole entry): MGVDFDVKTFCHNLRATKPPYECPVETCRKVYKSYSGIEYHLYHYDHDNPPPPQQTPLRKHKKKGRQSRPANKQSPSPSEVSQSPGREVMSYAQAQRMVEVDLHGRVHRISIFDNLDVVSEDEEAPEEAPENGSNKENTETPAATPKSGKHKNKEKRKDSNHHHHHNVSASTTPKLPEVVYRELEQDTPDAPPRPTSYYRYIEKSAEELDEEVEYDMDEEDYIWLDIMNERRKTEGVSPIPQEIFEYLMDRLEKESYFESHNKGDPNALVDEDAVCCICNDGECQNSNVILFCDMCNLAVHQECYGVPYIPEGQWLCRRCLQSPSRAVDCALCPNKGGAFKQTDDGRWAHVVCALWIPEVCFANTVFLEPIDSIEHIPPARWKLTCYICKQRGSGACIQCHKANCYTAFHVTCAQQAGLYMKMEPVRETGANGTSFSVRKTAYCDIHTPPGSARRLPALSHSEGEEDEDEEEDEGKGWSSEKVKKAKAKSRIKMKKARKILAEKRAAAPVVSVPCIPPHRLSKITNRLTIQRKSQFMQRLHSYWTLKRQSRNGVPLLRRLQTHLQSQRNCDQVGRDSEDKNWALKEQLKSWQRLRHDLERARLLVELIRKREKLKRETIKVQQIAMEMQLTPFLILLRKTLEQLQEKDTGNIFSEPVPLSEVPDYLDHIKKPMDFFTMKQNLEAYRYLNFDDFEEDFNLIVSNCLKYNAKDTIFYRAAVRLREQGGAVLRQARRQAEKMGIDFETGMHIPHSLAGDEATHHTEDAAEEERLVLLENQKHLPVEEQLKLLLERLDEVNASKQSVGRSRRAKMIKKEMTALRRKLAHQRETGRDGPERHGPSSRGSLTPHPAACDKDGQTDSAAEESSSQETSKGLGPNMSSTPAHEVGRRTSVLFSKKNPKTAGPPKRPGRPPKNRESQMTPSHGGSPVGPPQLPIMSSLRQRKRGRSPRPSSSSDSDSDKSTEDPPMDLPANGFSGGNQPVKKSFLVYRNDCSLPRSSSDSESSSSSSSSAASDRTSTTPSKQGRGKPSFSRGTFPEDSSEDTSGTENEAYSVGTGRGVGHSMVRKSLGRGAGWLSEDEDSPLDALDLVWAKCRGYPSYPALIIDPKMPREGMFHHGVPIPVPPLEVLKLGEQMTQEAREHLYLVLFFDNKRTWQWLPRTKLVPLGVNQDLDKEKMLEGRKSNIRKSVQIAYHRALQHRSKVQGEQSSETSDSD

[1] = molecular target: Fibroblast growth factor receptor 2 (Homo sapiens) (UniProt P21802); conditions: Compound concentration 20.0 uM
Sequence of Fibroblast growth factor receptor 2 (Homo sapiens) (P21802 22-821 limits assumed): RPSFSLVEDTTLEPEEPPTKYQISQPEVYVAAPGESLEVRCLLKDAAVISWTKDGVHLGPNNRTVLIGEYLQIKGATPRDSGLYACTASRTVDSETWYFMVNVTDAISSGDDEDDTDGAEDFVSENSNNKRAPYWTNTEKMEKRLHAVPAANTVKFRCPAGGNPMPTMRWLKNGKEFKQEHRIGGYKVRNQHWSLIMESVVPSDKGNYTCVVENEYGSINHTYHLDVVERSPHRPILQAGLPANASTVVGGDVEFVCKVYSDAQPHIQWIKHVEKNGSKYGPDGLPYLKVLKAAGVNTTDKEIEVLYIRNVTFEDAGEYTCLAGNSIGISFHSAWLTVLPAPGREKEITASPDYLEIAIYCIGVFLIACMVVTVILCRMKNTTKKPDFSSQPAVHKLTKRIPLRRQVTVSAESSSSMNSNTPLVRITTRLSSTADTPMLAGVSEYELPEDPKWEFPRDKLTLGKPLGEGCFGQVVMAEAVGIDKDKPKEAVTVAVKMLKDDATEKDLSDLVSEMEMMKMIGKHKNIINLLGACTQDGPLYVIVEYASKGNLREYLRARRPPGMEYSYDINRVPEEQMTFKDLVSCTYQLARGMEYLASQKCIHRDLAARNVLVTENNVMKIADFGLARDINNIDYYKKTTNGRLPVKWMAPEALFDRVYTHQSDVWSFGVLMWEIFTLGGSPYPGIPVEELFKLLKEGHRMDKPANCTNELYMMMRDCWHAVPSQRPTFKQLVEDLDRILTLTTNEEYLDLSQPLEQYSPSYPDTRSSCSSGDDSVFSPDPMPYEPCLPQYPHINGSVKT
Description: Thermal Shift Assay. Domain: start/stop: T457-E768

O=C(c1cc(Cc2n[nH]c(=O)c3ccccc23)ccc1F)N1CCN(C(=O)C2CC2)CC1
ΔTm (Peregrin (Homo sapiens)): 0.96 °C | ΔTm [1]: -0.16 °C

CC(C)=C[C@H]1C[C@H](C)[C@]2(CC[C@]3(C)C[C@H]4[C@H](C(=O)C[C@@]4(C)O)/C(C=O)=C\C[C@H]32)O1
ΔTm (Peregrin (Homo sapiens)): -0.47 °C | ΔTm [1]: 0.16 °C

Nc1ncnc2c1ncn2[C@@H]1O[C@H](C(=O)N2CCN(CC(=O)Nc3cccc4c3CNC4=O)CC2)[C@@H](O)[C@H]1O
ΔTm (Peregrin (Homo sapiens)): -1.21 °C | ΔTm [1]: 0.74 °C

CC(C)c1ccc(C(=O)N=C(N)N)cc1S(C)(=O)=O
ΔTm (Peregrin (Homo sapiens)): -0.14 °C | ΔTm [1]: -0.34 °C

O=c1[nH]c(Oc2cnn(Cc3ccccc3)c2)nc2cnccc12
ΔTm (Peregrin (Homo sapiens)): 3.09 °C | ΔTm [1]: -0.24 °C

CC/C(=C(/CC)c1ccc(O)cc1)c1ccc(O)cc1
ΔTm (Peregrin (Homo sapiens)): -8.49 °C | ΔTm [1]: -8.29 °C

Nc1ccc(-c2cccs2)cc1NC(=O)c1ccc2nc(N3CCNCC3)ccc2c1
ΔTm (Peregrin (Homo sapiens)): 0.96 °C | ΔTm [1]: 0.98 °C

Oc1ccc(-c2c(-c3ccccc3)nn3c(C(F)(F)F)cc(C(F)(F)F)nc23)cc1
ΔTm (Peregrin (Homo sapiens)): -1.38 °C | ΔTm [1]: 1.15 °C

N[C@@H](CCNCc1ccc(Cl)cc1)C(=O)N1CCCCC1
ΔTm (Peregrin (Homo sapiens)): 0.85 °C | ΔTm [1]: -0.56 °C

Cc1ccc(N2C(=O)/C(=C/C=C/c3ccco3)C(=O)NC2=S)cc1Cl
ΔTm (Peregrin (Homo sapiens)): -2.31 °C | ΔTm [1]: -1.72 °C

O=C(O)/C(S)=C/c1c[nH]c2ccc(F)cc12
ΔTm (Peregrin (Homo sapiens)): -0.77 °C | ΔTm [1]: 0.66 °C

c1ccc(Cn2c(-c3ccc(OC[C@H](C4CCNCC4)n4c(-c5ccccc5)nc5ccccc54)cc3)nc3ccccc32)cc1
ΔTm (Peregrin (Homo sapiens)): -5.25 °C | ΔTm [1]: -8.18 °C

O=C(Cc1ccccc1)c1cc(O)c(O)c([N+](=O)[O-])c1
ΔTm (Peregrin (Homo sapiens)): 0.33 °C | ΔTm [1]: 0.57 °C

CC(=O)Nc1ccc(C(=O)Nc2ccc(F)cc2N)cc1
ΔTm (Peregrin (Homo sapiens)): 1.03 °C | ΔTm [1]: 0.76 °C

CCCc1nc(C)c2c(C)nc3ccc(OC)nc3n12
ΔTm (Peregrin (Homo sapiens)): -0.07 °C | ΔTm [1]: -0.53 °C

COC[C@H](NC(=O)c1ccn(S(C)(=O)=O)c1)C(=O)Nc1nc(-c2cccc(-c3ccn(C)n3)c2)cs1
ΔTm (Peregrin (Homo sapiens)): -0.52 °C | ΔTm [1]: 0.09 °C

CN(C(=O)CCCOc1ccc2[nH]c(=O)ccc2c1)C1CCCCC1
ΔTm (Peregrin (Homo sapiens)): 1.74 °C | ΔTm [1]: -0.58 °C

CNCc1ccc(-c2cc3cc(F)cc(C(N)=O)c3o2)cc1
ΔTm (Peregrin (Homo sapiens)): 1.32 °C | ΔTm [1]: 0.56 °C

COc1cc2c(NC3CCN(C)CC3)nc(N3CCCN(C)CC3)nc2cc1OCCCN(C)C
ΔTm (Peregrin (Homo sapiens)): -1.21 °C | ΔTm [1]: 0.15 °C

COc1cn(-c2ccc(-n3cccn3)cc2F)nc(-c2ccnn2-c2ccccc2)c1=O
ΔTm (Peregrin (Homo sapiens)): 1.13 °C | ΔTm [1]: 0.54 °C

N#Cc1c(N)[nH]c2cc(/C=C/c3cccc(F)c3)ccc12
ΔTm (Peregrin (Homo sapiens)): 6.38 °C | ΔTm [1]: 1.59 °C

CNC(=O)c1cc(C(=O)NC2CC2)cn(Cc2ccccc2)c1=O
ΔTm (Peregrin (Homo sapiens)): 0.73 °C | ΔTm [1]: -1.38 °C

COc1cc2c(cc1OC)[C@H]1C[C@@H](OC(=O)[C@@H](N)C(C)C)[C@H](CC(C)C)CN1CC2
ΔTm (Peregrin (Homo sapiens)): -1.11 °C | ΔTm [1]: 0.33 °C

CC(C)C(=O)c1c(C(C)C)nn2ccccc12
ΔTm (Peregrin (Homo sapiens)): 0.32 °C | ΔTm [1]: -0.49 °C

COc1ccc([C@@H]2CNC(=O)C2)cc1OC1CCCC1
ΔTm (Peregrin (Homo sapiens)): 0.39 °C | ΔTm [1]: -0.37 °C

CC(C)(C)C1CCN(C(=O)n2ncc(C(O)(c3ccccc3)c3ccccc3)n2)CC1
ΔTm (Peregrin (Homo sapiens)): -4.31 °C | ΔTm [1]: -3.22 °C

O=C(Nc1c(Cl)cncc1Cl)c1ccc(OC(F)F)c(OCC2CC2)c1
ΔTm (Peregrin (Homo sapiens)): 0.52 °C | ΔTm [1]: 0.95 °C

CN1[C@@H]2CC[C@H]1C[C@@H](OC(c1ccc(F)cc1)c1ccc(F)cc1)C2
ΔTm (Peregrin (Homo sapiens)): -0.08 °C | ΔTm [1]: -0.72 °C

CCN(CCN(C)C)C(=O)CNCc1cc(C(N)=O)ccn1
ΔTm (Peregrin (Homo sapiens)): -1.31 °C | ΔTm [1]: 0.97 °C

Nc1ncnc2c1nc(NCc1ccc(-c3ccccc3)cc1)n2[C@@H]1O[C@H](CO)[C@@H](O)[C@H]1O
ΔTm (Peregrin (Homo sapiens)): 0.29 °C | ΔTm [1]: 0.12 °C

COC1CCN(C(=O)c2cc(Cc3n[nH]c(=O)c4ccccc34)ccc2F)CC1
ΔTm (Peregrin (Homo sapiens)): 1.51 °C | ΔTm [1]: -0.21 °C

CC(=O)N[C@@H](C)C(=O)N[C@@H](CCC(=O)O)C(=O)N[C@H](C(=O)N[C@@H](C=O)CC(=O)O)C(C)C
ΔTm (Peregrin (Homo sapiens)): -1.79 °C | ΔTm [1]: 0.19 °C

COc1cccc(-c2nccc3c2CN(c2ccccc2)C3=O)c1
ΔTm (Peregrin (Homo sapiens)): -0.63 °C | ΔTm [1]: 0.77 °C

COc1ccc2nc3[nH]nc(C)c3c(NCCOCCO)c2c1
ΔTm (Peregrin (Homo sapiens)): -1.14 °C | ΔTm [1]: 0.8 °C
